Source: patent publication US7910751B2, “Heterocyclidene acetamide derivative” (Mochida Pharmaceutical Co., Ltd., priority 2005, dated 2011)

Target: T1, human TRPV1 (Homo sapiens, UniProt Q8NER1)
T1 construct: expressed in transfected cells; host or cells: CHO-K1
Assay: Measurement of capsaicin-induced Ca influx in human TRPV1 transformed CHO cell line using FDSS-6000
Format: cell-based
Conditions: concentration at which the capsaicin concentration-reaction curve is shifted two times to the right, human TRPV1 transformed CHO cells

T1 sequence (Q8NER1 whole entry): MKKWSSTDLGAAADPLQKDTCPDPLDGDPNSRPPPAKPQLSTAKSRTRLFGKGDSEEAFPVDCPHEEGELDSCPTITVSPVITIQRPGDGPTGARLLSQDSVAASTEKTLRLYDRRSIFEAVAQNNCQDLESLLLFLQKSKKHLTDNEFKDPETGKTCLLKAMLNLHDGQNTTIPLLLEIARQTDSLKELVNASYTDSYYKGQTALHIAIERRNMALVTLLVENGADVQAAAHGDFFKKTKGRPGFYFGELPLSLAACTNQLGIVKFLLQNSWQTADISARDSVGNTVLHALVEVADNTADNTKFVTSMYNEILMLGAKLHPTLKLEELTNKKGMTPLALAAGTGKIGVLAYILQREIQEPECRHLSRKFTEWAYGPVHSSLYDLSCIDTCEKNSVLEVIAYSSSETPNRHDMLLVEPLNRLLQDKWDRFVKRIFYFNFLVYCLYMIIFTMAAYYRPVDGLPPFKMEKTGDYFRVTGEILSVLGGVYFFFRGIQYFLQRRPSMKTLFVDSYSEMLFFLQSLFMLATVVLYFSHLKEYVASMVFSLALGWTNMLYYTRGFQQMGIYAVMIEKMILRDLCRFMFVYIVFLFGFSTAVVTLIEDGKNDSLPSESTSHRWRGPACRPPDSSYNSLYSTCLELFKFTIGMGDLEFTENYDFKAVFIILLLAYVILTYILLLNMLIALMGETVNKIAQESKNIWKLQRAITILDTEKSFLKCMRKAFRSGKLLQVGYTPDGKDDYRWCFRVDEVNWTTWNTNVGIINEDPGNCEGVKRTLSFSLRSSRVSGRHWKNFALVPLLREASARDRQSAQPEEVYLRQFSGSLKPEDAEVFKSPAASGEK

Q: With `O=C(/C=C1\CCCOc2cc(C(F)(F)F)ccc21)Nc1cccc2cc(O)ccc12` [Example 126, (E)-N-(6-hydroxynaphthalen-1-yl)-2-(8-trifluoromethyl-3,4-dihydrobenzo[b]oxepin-5(2H)-ylidene)acetamide] as the compound, how does the “A2 VALUE” read?
A: A (compounds of the present invention having an A2 value of less than 100 nM are represented by A)

Q: How did the “A2 VALUE” turn out when `CS(=O)(=O)O.O=C(/C=C1\CCCOc2cc(C(F)(F)F)ccc21)Nc1ccc2cccnc2c1` [Example 127, (E)-2-(8-trifluoromethyl-3,4-dihydrobenzo[b]oxepin-5(2H)-ylidene)-N-(quinolin-7-yl)acetamide methanesulfonate] was run?
A: A (compounds of the present invention having an A2 value of less than 100 nM are represented by A)

Q: With `O=C(/C=C1\CCCOc2cc(C(F)(F)F)ccc21)Nc1ccc2ccc(O)cc2c1` [Example 128, (E)-2-(8-trifluoromethyl-3,4-dihydrobenzo[b]oxepin-5(2H)-ylidene)-N-(7-hydroxynaphthalen-2-yl)acetamide] as the compound, how does the “A2 VALUE” read?
A: A (compounds of the present invention having an A2 value of less than 100 nM are represented by A)

Q: Which “A2 VALUE” does the source give for `COc1ccc2cccc(NC(=O)/C=C3\CCCOc4cc(C(F)(F)F)ccc43)c2c1` [Example 129, (E)-2-(8-trifluoromethyl-3,4-dihydrobenzo[b]oxepin-5(2H)-ylidene)-N-(7-methoxynaphthalen-1-yl)acetamide] here?
A: B (compounds having an A2 value of 100 nM or more are represented by B)

Q: `COCCN1CCCc2ccc(NC(=O)/C=C3\CCCOc4cc(C(F)(F)F)ccc43)cc21` [Example 130, (E)-2-(8-trifluoromethyl-3,4-dihydrobenzo[b]oxepin-5(2H)-ylidene)-N-(1-(2-methoxyethyl)-1,2,3,4-tetrahydroquinolin-7-yl)acetamide] was tested. Which “A2 VALUE” did it give?
A: A (compounds of the present invention having an A2 value of less than 100 nM are represented by A)

Q: How did the “A2 VALUE” turn out when `O=C(/C=C1\CCCOc2cc(C(F)(F)F)ccc21)Nc1ccc2c(c1)NC(=O)CC2` [Example 133, (E)-2-(8-trifluoromethyl-3,4-dihydrobenzo[b]oxepin-5(2H)-ylidene)-N-(3,4-dihydro-1H-quinolin-2-on-7-yl)acetamide] was run?
A: A (compounds of the present invention having an A2 value of less than 100 nM are represented by A)

Q: Which “A2 VALUE” does the source give for `O=C(/C=C1\CCCOc2cc(C(F)(F)F)ccc21)Nc1ccc2ccc(=O)[nH]c2c1` [Example 134, (E)-2-(8-trifluoromethyl-3,4-dihydrobenzo[b]oxepin-5(2H)-ylidene)-N-(2-quinolon-7-yl)acetamide] here?
A: A (compounds of the present invention having an A2 value of less than 100 nM are represented by A)

Q: How did the “A2 VALUE” turn out when `COc1cc(NC(=O)/C=C2\CCCOc3cc(C(F)(F)F)ccc32)cc(C(F)(F)F)c1` [Example 135, (E)-2-(8-trifluoromethyl-3,4-dihydrobenzo[b]oxepin-5(2H)-ylidene)-N-(3-methoxy-5-(trifluoromethyl)phenyl)acetamide] was run?
A: A (compounds of the present invention having an A2 value of less than 100 nM are represented by A)

Q: For `O=C(/C=C1\CCCOc2cc(C(F)(F)F)ccc21)Nc1ccc(Cl)c(C(F)(F)F)c1` [Example 136, (E)-2-(8-trifluoromethyl-3,4-dihydrobenzo[b]oxepin-5(2H)-ylidene)-N-(4-chloro-3-(trifluoromethyl)phenyl)acetamide], which “A2 VALUE” is on record?
A: A (compounds of the present invention having an A2 value of less than 100 nM are represented by A)

Q: `O=C(/C=C1\CCCOc2cc(C(F)(F)F)ccc21)Nc1ccc2cc[nH]c2c1` [Example 137, (E)-2-(8-trifluoromethyl-3,4-dihydrobenzo[b]oxepin-5(2H)-ylidene)-N-(indol-6-yl)acetamide] was tested. Which “A2 VALUE” did it give?
A: A (compounds of the present invention having an A2 value of less than 100 nM are represented by A)

Q: For `O=C(/C=C1\CCCOc2cc(C(F)(F)F)ccc21)Nc1ccc2[nH]ccc2c1` [Example 138, (E)-2-(8-trifluoromethyl-3,4-dihydrobenzo[b]oxepin-5(2H)-ylidene)-N-(indol-5-yl)acetamide], which “A2 VALUE” is on record?
A: A (compounds of the present invention having an A2 value of less than 100 nM are represented by A)

Q: Which “A2 VALUE” does the source give for `O=C(/C=C1\CCCOc2cc(C(F)(F)F)ccc21)Nc1ccc2c(c1)OCCCO2` [Example 142, (E)-2-(8-trifluoromethyl-3,4-dihydrobenzo[b]oxepin-5(2H)-ylidene)-N-(3,4-dihydro-2H-benzo[b]dioxepin-7-yl)acetamide] here?
A: A (compounds of the present invention having an A2 value of less than 100 nM are represented by A)

Q: Which “A2 VALUE” does the source give for `O=C(/C=C1\CCCOc2cc(C(F)(F)F)ccc21)Nc1ccc2c(c1)OC(F)(F)O2` [Example 143, (E)-2-(8-trifluoromethyl-3,4-dihydrobenzo[b]oxepin-5(2H)-ylidene)-N-(2,2-difluoro-1,3-benzodioxol-5-yl)acetamide] here?
A: B (compounds having an A2 value of 100 nM or more are represented by B)

Q: With `O=C(/C=C1\CCCOc2cc(C(F)(F)F)ccc21)Nc1ccc2c(c1)OCO2` [Example 144, (E)-2-(8-trifluoromethyl-3,4-dihydrobenzo[b]oxepin-5(2H)-ylidene)-N-(1,3-benzodioxol-5-yl)acetamide] as the compound, how does the “A2 VALUE” read?
A: A (compounds of the present invention having an A2 value of less than 100 nM are represented by A)

Q: `Cn1ccc2cc(NC(=O)/C=C3\CCCOc4cc(C(F)(F)F)ccc43)ccc21` [Example 149, (E)-2-(8-trifluoromethyl-3,4-dihydrobenzo[b]oxepin-5(2H)-ylidene)-N-(1-methylindol-5-yl)acetamide] was tested. Which “A2 VALUE” did it give?
A: A (compounds of the present invention having an A2 value of less than 100 nM are represented by A)

Q: Which “A2 VALUE” does the source give for `O=C(/C=C1\CCCOc2cc(C(F)(F)F)ccc21)Nc1cccc2c(O)cccc12` [Example 150, (E)-2-(8-trifluoromethyl-3,4-dihydrobenzo[b]oxepin-5(2H)-ylidene)-N-(5-hydroxynaphthalen-1-yl)acetamide] here?
A: A (compounds of the present invention having an A2 value of less than 100 nM are represented by A)

Q: For `O=C(/C=C1\CCCOc2cc(C(F)(F)F)ccc21)Nc1ccc2ccn(CCO)c2c1` [Example 151, (E)-2-(8-trifluoromethyl-3,4-dihydrobenzo[b]oxepin-5(2H)-ylidene)-N-(1-(2-hydroxyethyl)indol-6-yl)acetamide], which “A2 VALUE” is on record?
A: A (compounds of the present invention having an A2 value of less than 100 nM are represented by A)

Q: `Cn1ccc2ccc(NC(=O)/C=C3\CCCOc4cc(C(F)(F)F)ccc43)cc21` [Example 152, (E)-2-(8-trifluoromethyl-3,4-dihydrobenzo[b]oxepin-5(2H)-ylidene)-N-(1-methylindol-6-yl)acetamide] was tested. Which “A2 VALUE” did it give?
A: A (compounds of the present invention having an A2 value of less than 100 nM are represented by A)

Q: `O=C(/C=C1\CCCOc2cc(C(F)(F)F)ccc21)Nc1ccc2c(c1)C(=O)CC2` [Example 157, (E)-2-(8-trifluoromethyl-3,4-dihydrobenzo[b]oxepin-5(2H)-ylidene)-N-(indan-1-on-6-yl)acetamide] was tested. Which “A2 VALUE” did it give?
A: A (compounds of the present invention having an A2 value of less than 100 nM are represented by A)

Q: For `O=C(/C=C1\CCCOc2cc(C(F)(F)F)ccc21)Nc1cccc2c1CCC2O` (stereo not shown) [Example 160, (E)-2-(8-trifluoromethyl-3,4-dihydrobenzo[b]oxepin-5(2H)-ylidene)-N-(indan-1-ol-4-yl)acetamide], which “A2 VALUE” is on record?
A: A (compounds of the present invention having an A2 value of less than 100 nM are represented by A)

Q: `CC(=O)OC1CCc2c(NC(=O)/C=C3\CCCOc4cc(C(F)(F)F)ccc43)cccc21` (stereo not shown) [Example 161, (E)-2-(8-trifluoromethyl-3,4-dihydrobenzo[b]oxepin-5(2H)-ylidene)-N-(indan-1-acetoxy-4-yl)acetamide] was tested. Which “A2 VALUE” did it give?
A: B (compounds having an A2 value of 100 nM or more are represented by B)

Q: Which “A2 VALUE” does the source give for `O=C(/C=C1\CCCOc2cc(C(F)(F)F)ccc21)Nc1cccc2c1CC(O)C2` (stereo not shown) [Example 163, (E)-2-(8-trifluoromethyl-3,4-dihydrobenzo[b]oxepin-5(2H)-ylidene)-N-(indan-2-ol-4-yl)acetamide] here?
A: A (compounds of the present invention having an A2 value of less than 100 nM are represented by A)

Q: Which “A2 VALUE” does the source give for `O=C(/C=C1\CCCOc2cc(C(F)(F)F)ccc21)Nc1ccc2c(ccn2CCO)c1` [Example 164] here?
A: A (compounds of the present invention having an A2 value of less than 100 nM are represented by A)

Q: `O=C(/C=C1\CCCOc2cc(C(F)(F)F)ccc21)Nc1ccc2c(c1)OC(CO)CO2` (stereo not shown) [Example 165, (E)-2-(8-trifluoromethyl-3,4-dihydrobenzo[b]oxepin-5(2H)-ylidene)-N-(3-hydroxymethyl-2,3-dihydro-1,4-benzodioxin-6-yl)acetamide] was tested. Which “A2 VALUE” did it give?
A: A (compounds of the present invention having an A2 value of less than 100 nM are represented by A)

Q: For `O=C(/C=C1\CCCOc2cc(C(F)(F)F)ccc21)Nc1ccc2c(c1)C(=O)NC2` [Example 166, (E)-2-(8-trifluoromethyl-3,4-dihydrobenzo[b]oxepin-5(2H)-ylidene)-N-(2,3-dihydro-isoindol-1-on-6-yl)acetamide], which “A2 VALUE” is on record?
A: A (compounds of the present invention having an A2 value of less than 100 nM are represented by A)

Q: How did the “A2 VALUE” turn out when `O=C(/C=C1\CCCOc2cc(C(F)(F)F)ccc21)Nc1ccc2c(c1)NCCC2` [Example 167, (E)-2-(8-trifluoromethyl-3,4-dihydrobenzo[b]oxepin-5(2H)-ylidene)-N-(1,2,3,4-tetrahydroquinolin-7-yl)acetamide] was run?
A: A (compounds of the present invention having an A2 value of less than 100 nM are represented by A)

Q: With `O=C(/C=C1\CCCOc2cc(C(F)(F)F)ccc21)Nc1cccc2c1CC1OC1C2` (stereo not shown) [Example 169, (E)-2-(8-trifluoromethyl-3,4-dihydrobenzo[b]oxepin-5(2H)-ylidene)-N-(1a,2,7,7a-tetrahydronaphtho[b]oxiren-3-yl)acetamide] as the compound, how does the “A2 VALUE” read?
A: A (compounds of the present invention having an A2 value of less than 100 nM are represented by A)

Q: Which “A2 VALUE” does the source give for `O=C(/C=C1\CCCOc2cc(C(F)(F)F)ccc21)Nc1ccc2c(c1)C(O)CC2` (stereo not shown) [Example 175, (E)-2-(8-trifluoromethyl-3,4-dihydrobenzo[b]oxepin-5(2H)-ylidene)-N-(indan-1-ol-6-yl)acetamide] here?
A: A (compounds of the present invention having an A2 value of less than 100 nM are represented by A)
